Measured values reported in patent publication US10323038B2, “Pyrazole compounds and methods of making and using same” (ABIDE THERAPEUTICS, INC., priority 2015, dated 2019).

Experiments:
[1] = biological target: MAGL (Mus musculus (Mouse), UniProt O35678); assay: In vitro competitive activity-based protein profiling, MAGL (mouse); format: biochemical; settings: for inhibition at 1 µM: read-out: MAGL % inh. 1 μM (mouse)
In short: (§1)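 Mouse brain membrane fraction or cell lysates (mouse assays) and human prefrontal cortex or cell membrane fractions (human assays), 1.0 mg/mL protein, were preincubated with varying inhibitor concentrations for 30 min at 37° C. FP-Rh or HT-01 probe (50 μM stock in DMSO) was then added for another 30 min at 37° C.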

[2] = biological target: FAAH (Mus musculus (Mouse), UniProt O08914); assay: In vitro competitive activity-based protein profiling, FAAH (mouse); format: biochemical; settings: for inhibition at 1 µM: read-out: FAAH % inh. 1 μM (mouse)
In short: as §1

FAAH, sequence (O08914 whole entry): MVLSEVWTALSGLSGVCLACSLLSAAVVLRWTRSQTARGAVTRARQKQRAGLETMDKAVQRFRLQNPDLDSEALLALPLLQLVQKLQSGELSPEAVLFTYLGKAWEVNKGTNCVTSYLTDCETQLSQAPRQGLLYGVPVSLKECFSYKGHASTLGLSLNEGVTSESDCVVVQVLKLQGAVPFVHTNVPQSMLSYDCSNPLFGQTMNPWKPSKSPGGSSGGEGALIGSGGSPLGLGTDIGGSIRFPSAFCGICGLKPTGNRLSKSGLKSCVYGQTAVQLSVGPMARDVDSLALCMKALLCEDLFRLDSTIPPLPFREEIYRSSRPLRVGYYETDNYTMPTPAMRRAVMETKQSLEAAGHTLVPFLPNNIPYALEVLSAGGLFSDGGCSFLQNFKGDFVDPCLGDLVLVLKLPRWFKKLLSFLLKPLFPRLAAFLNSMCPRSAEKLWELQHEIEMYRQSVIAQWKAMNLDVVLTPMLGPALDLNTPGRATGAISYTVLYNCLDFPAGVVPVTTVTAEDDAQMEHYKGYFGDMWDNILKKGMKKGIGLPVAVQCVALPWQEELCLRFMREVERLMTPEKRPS
MAGL, sequence (O35678 whole entry): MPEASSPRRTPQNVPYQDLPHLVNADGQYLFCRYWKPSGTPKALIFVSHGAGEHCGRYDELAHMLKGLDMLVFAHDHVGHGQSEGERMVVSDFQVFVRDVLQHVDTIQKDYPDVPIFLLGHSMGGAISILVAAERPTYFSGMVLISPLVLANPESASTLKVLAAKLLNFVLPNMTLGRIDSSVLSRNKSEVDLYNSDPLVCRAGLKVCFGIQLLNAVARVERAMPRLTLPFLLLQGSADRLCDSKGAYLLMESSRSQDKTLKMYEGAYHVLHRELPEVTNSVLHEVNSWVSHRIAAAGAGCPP

Row | Compound | IC50 [1] [nM] | inhibition at 1 µM [1] [%] | IC50 [2] [nM] | inhibition at 1 µM [2] [%]
1 | CC(=O)N(C)c1cnn(C(=O)N2CC3CN(Cc4cccc(Cl)c4C)CC3C2)c1 (stereo not drawn) [Example 103, N-(1-(5-(3-chloro-2-methylbenzyl)octahydropyrrolo[3,4-c]pyrrole-2-carbonyl)-1H-pyrazol-4-yl)-N-methylacetamide] | ≤ 100 | ≥ 75 | ≤ 100 | ≥ 75
2 | CC(=O)N(C)c1cnn(C(=O)N2CC3CN(Cc4cc(Cl)ccc4C(F)(F)F)CC3C2)c1 (stereo not drawn) [Example 104, N-(1-(5-(5-chloro-2-(trifluoromethyl)benzyl)octahydropyrrolo[3,4-c]pyrrole-2-carbonyl)-1H-pyrazol-4-yl)-N-methylacetamide] | – | ≥ 75 | – | ≥ 75
3 | CC(=O)N(C)c1cnn(C(=O)N2CC3CN(Cc4cc(Cl)cc(Cl)c4)CC3C2)c1 (stereo not drawn) [Example 105, N-(1-(5-(3,5-dichlorobenzyl)octahydropyrrolo[3,4-c]pyrrole-2-carbonyl)-1H-pyrazol-4-yl)-N-methylacetamide] | ≤ 100 | ≥ 75 | ≤ 100 | ≥ 75
4 | CC(=O)N(C)c1cnn(C(=O)N2CC3CN(Cc4cc(C(F)(F)F)ccc4Cl)CC3C2)c1 (stereo not drawn) [Example 106, N-(1-(5-(2-chloro-5-(trifluoromethyl)benzyl)octahydropyrrolo[3,4-c]pyrrole-2-carbonyl)-1H-pyrazol-4-yl)-N-methylacetamide] | – | ≥ 75 | – | ≥ 75
5 | CC(=O)N(C)c1cnn(C(=O)N2CC3CN(Cc4cccc(Cl)c4Cl)CC3C2)c1 (stereo not drawn) [Example 107, N-(1-(5-(2,3-dichlorobenzyl)octahydropyrrolo[3,4-c]pyrrole-2-carbonyl)-1H-pyrazol-4-yl)-N-methylacetamide] | ≤ 100 | ≥ 75 | ≤ 100 | ≥ 75
6 | CC(=O)N(C)c1cnn(C(=O)N2CC3CN(Cc4cc(C)cc(C)c4)CC3C2)c1 (stereo not drawn) [Example 108, N-(1-(5-(3,5-dimethylbenzyl)octahydropyrrolo[3,4-c]pyrrole-2-carbonyl)-1H-pyrazol-4-yl)-N-methylacetamide] | 100 to 1000 | ≥ 75 | ≤ 100 | ≥ 75
7 | CC(=O)N(C)c1cnn(C(=O)N2CC3CN(Cc4cc(Cl)ccc4Cl)CC3C2)c1 (stereo not drawn) [Example 109, N-(1-(5-(2,5-dichlorobenzyl)octahydropyrrolo[3,4-c]pyrrole-2-carbonyl)-1H-pyrazol-4-yl)-N-methylacetamide] | ≤ 100 | ≥ 75 | ≤ 100 | ≥ 75
8 | CC(=O)N(C)c1cnn(C(=O)N2CC3CN(Cc4cc(Cl)cc(N5CCCC5)c4)CC3C2)c1 (stereo not drawn) [Example 110, N-(1-(5-(3-chloro-5-(pyrrolidin-1-yl)benzyl)octahydropyrrolo[3,4-c]pyrrole-2-carbonyl)-1H-pyrazol-4-yl)-N-methylacetamide] | ≤ 100 | ≥ 75 | ≤ 100 | ≥ 75
9 | CC(=O)N(C)c1cnn(C(=O)N2CC3CN(Cc4c(Cl)cccc4Cl)CC3C2)c1 (stereo not drawn) [Example 111, N-(1-(5-(2,6-dichlorobenzyl)octahydropyrrolo[3,4-c]pyrrole-2-carbonyl)-1H-pyrazol-4-yl)-N-methylacetamide] | ≤ 100 | ≥ 75 | ≤ 100 | ≥ 75
10 | CC(=O)N(C)c1cnn(C(=O)N2CC3CN(Cc4cc(N5CCCC5)cc(C(F)(F)F)c4)CC3C2)c1 (stereo not drawn) [Example 112, N-methyl-N-(1-(5-(3-(pyrrolidin-1-yl)-5-(trifluoromethyl)benzyl)octahydropyrrolo[3,4-c]pyrrole-2-carbonyl)-1H-pyrazol-4-yl)acetamide] | ≤ 100 | ≥ 75 | ≤ 100 | ≥ 75
11 | CC(=O)N(C)c1cnn(C(=O)N2CC3CN(Cc4ccc(Cl)cc4Cl)CC3C2)c1 (stereo not drawn) [Example 113, N-(1-(5-(2,4-dichlorobenzyl)octahydropyrrolo[3,4-c]pyrrole-2-carbonyl)-1H-pyrazol-4-yl)-N-methylacetamide] | ≤ 100 | ≥ 75 | ≤ 100 | ≥ 75
12 | CC(=O)N(C)c1cnn(C(=O)N2CC3CN(Cc4cc(N5CCOCC5)cc(C(F)(F)F)c4)CC3C2)c1 (stereo not drawn) [Example 114, N-methyl-N-(1-(5-(3-morpholino-5-(trifluoromethyl)benzyl)octahydropyrrolo[3,4-c]pyrrole-2-carbonyl)-1H-pyrazol-4-yl)acetamide] | ≤ 100 | ≥ 75 | ≤ 100 | ≥ 75
13 | CC(=O)N(C)c1cnn(C(=O)N2CC3CN(Cc4ccc(C)cc4Cl)CC3C2)c1 (stereo not drawn) [Example 115, N-(1-(5-(2-chloro-4-methylbenzyl)octahydropyrrolo[3,4-c]pyrrole-2-carbonyl)-1H-pyrazol-4-yl)-N-methylacetamide] | ≤ 100 | ≥ 75 | ≤ 100 | ≥ 75
14 | CC(=O)N(C)c1cnn(C(=O)N2CC3CN(Cc4cc(C(F)(F)F)cc(C(F)(F)F)c4)CC3C2)c1 (stereo not drawn) [Example 116, N-(1-(5-(3,5-bis(trifluoromethyl)benzyl)octahydropyrrolo[3,4-c]pyrrole-2-carbonyl)-1H-pyrazol-4-yl)-N-methylacetamide] | ≤ 100 | ≥ 75 | ≤ 100 | ≥ 75
15 | CC(=O)N(C)c1cnn(C(=O)N2CC3CN(Cc4cccc(C(F)(F)F)c4)CC3C2)c1 (stereo not drawn) [Example 117, N-methyl-N-(1-(5-(3-(trifluoromethyl)benzyl)octahydropyrrolo[3,4-c]pyrrole-2-carbonyl)-1H-pyrazol-4-yl)acetamide] | ≤ 100 | ≥ 75 | ≤ 100 | ≥ 75
16 | CC(=O)N(C)c1cnn(C(=O)N2CC3CN(Cc4cc(Cl)cc(N5CC6COCC6C5)c4)CC3C2)c1 (stereo not drawn) [Example 118, N-(1-(5-(3-chloro-5-(tetrahydro-1H-furo[3,4-c]pyrrol-5(3H)-yl)benzyl)octahydropyrrolo[3,4-c]pyrrole-2-carbonyl)-1H-pyrazol-4-yl)-N-methylacetamide] | ≤ 100 | ≥ 75 | ≤ 100 | ≥ 75
17 | CC(=O)N(C)c1cnn(C(=O)N2CC3CN(Cc4cccc(N5CCCC5)c4)CC3C2)c1 (stereo not drawn) [Example 119, N-methyl-N-(1-(5-(3-(pyrrolidin-1-yl)benzyl)octahydropyrrolo[3,4-c]pyrrole-2-carbonyl)-1H-pyrazol-4-yl)acetamide] | ≤ 100 | ≥ 75 | ≤ 100 | ≥ 75
18 | CC(=O)N(C)c1cnn(C(=O)N2CC3CN(Cc4cc(Cl)cc(N5CCN(C6CC6)CC5)c4)CC3C2)c1 (stereo not drawn) [Example 120, N-(1-(5-(3-chloro-5-(4-cyclopropylpiperazin-1-yl)benzyl)octahydropyrrolo[3,4-c]pyrrole-2-carbonyl)-1H-pyrazol-4-yl)-N-methylacetamide] | ≤ 100 | ≥ 75 | ≤ 100 | ≥ 75
19 | CC(=O)N(C)c1cnn(C(=O)N2CC3CN(Cc4cccc(N5CCOCC5)c4)CC3C2)c1 (stereo not drawn) [Example 121, N-methyl-N-(1-(5-(3-morpholinobenzyl)octahydropyrrolo[3,4-c]pyrrole-2-carbonyl)-1H-pyrazol-4-yl)acetamide] | – | ≥ 75 | – | 50 to 75
20 | CC(=O)N(C)c1cnn(C(=O)N2CC3CN(Cc4ccc(F)c(Cl)c4)CC3C2)c1 (stereo not drawn) [Example 122, N-(1-(5-(3-chloro-4 fluorobenzyl)octahydropyrrolo[3,4-c]pyrrole-2-carbonyl)-1H-pyrazol-4-yl)-N-methylacetamide] | 100 to 1000 | ≥ 75 | ≤ 100 | ≥ 75
21 | CC(=O)N(C)c1cnn(C(=O)N2CC3CN(Cc4ccc(N5CCCC5)c(Cl)c4)CC3C2)c1 (stereo not drawn) [Example 123, N-(1-(5-(3-chloro-4-(pyrrolidin-1-yl)benzyl)octahydropyrrolo[3,4-c]pyrrole-2-carbonyl)-1H-pyrazol-4-yl)-N-methylacetamide] | ≤ 100 | ≥ 75 | ≤ 100 | ≥ 75
22 | CC(=O)N(C)c1cnn(C(=O)N2CC3CN(Cc4ccc(C(F)(F)F)c(N5CCOCC5)c4)CC3C2)c1 (stereo not drawn) [Example 124, N-methyl-N-(1-(5-(3-morpholino-4-(trifluoromethyl)benzyl)octahydropyrrolo[3,4-c]pyrrole-2-carbonyl)-1H-pyrazol-4-yl)acetamide] | ≤ 100 | ≥ 75 | ≤ 100 | ≥ 75
23 | CC(=O)N(C)c1cnn(C(=O)N2CC3CN(Cc4cc(Cl)cc(N5CCOCC5)c4)CC3C2)c1 (stereo not drawn) [Example 125, N-(1-(5-(3-chloro-5-morpholinobenzyl)octahydropyrrolo[3,4-c]pyrrole-2-carbonyl)-1H-pyrazol-4-yl)-N-methylacetamide] | ≤ 100 | ≥ 75 | ≤ 100 | ≥ 75
24 | CC(=O)N(C)c1cnn(C(=O)N2CC3CN(Cc4cc(C(F)(F)F)ccc4C(F)(F)F)CC3C2)c1 (stereo not drawn) [Example 126, N-(1-(5-(2,5-bis(trifluoromethyl)benzyl)octahydropyrrolo[3,4-c]pyrrole-2-carbonyl)-1H-pyrazol-4-yl)-N-methylacetamide] | – | ≥ 75 | – | ≥ 75
25 | CC(=O)N(C)c1cnn(C(=O)N2CC3CN(Cc4cc(N5CCCC5)ccc4C(F)(F)F)CC3C2)c1 (stereo not drawn) [Example 127, N-methyl-N-(1-(5-(5-(pyrrolidin-1-yl)-2-(trifluoromethyl)benzyl)octahydropyrrolo[3,4-c]pyrrole-2-carbonyl)-1H-pyrazol-4-yl)acetamide] | – | ≥ 75 | – | ≥ 75
